Measurements from patent US6451335B1, “Formulations and methods for providing prolonged local anesthesia” (Euro-Celtique S.A., priority 1998, dated 2002).
Counter-ions that a name gives are not always drawn.

What was measured:
[1] = test system: rat sciatic nerve; assay: Duration of anesthesia of bupivacaine microspheres (LAB) with co-injected additives, hotplate foot withdrawal; format: in vivo; settings: LAB 150 mg/kg perineural
Procedure: In this example, a large number of pharmaceutical agents were tested for activity in augmenting the duration of local anesthetic activity. Bupivacaine-containing microspheres at about 75% loading, by weight, were injected perineurally into rat sciatic nerve at a dose of 150 mg/kg (weight microspheres/weight rat) to dose of approximately 50 mg/nerve. For the injections, needle placement adjacent to the target nerve was optimized by intermittent electrical e stimulation of the target nerve (via the injection needle) with low amplitude current to produce limb flexion. For the injections, the microspheres were suspended in a carrier vehicle suitable for injection. While any pharmaceutically acceptable carrier vehicle is acceptable, for these experiments the carrier vehicle was 1% sodium carboxymethylcellulose and 1% Tween 80 in water.
Compounds to be tested were co-injected with bupivacaine containing microspheres (i.e., mixed as additives into the carrier vehicle) in a range of concentrations. Results are expressed as percent increase in duration relative to non-augmented durations that were obtained in the same animal model.
The duration of anesthesia was measured by the hotplate foot withdrawal method described above in Example 10 and refers to the time necessary for the animal to recover from maximal nerve latency (12 sec) to a latency of 7 seconds, approximately 50% recovery. The results are tabulated in Table 3 below as percent of control.

[2] = test system: rat sciatic nerve; assay: Rat sciatic nerve model, sensory testing (hotplate hindpaw withdrawal latency); format: in vivo; settings: for duration of sensory block: augmenting agent with bupivacaine-loaded microspheres vs contralateral side with bupivacaine-loaded microspheres without the agent
Procedure: (§1) The duration of local anesthesia induced by the bupivacaine-loaded microspheres, prepared from PLGA 65:35, with and without the co-administration of an augmenting agent, is tested in a rat sciatic nerve model for localized local anesthesia. […] The latency test determines the time, in seconds, before a rat withdraws its hindpaw from a hotplate set to a safe but uncomfortable temperature (56° C.).
(§2) Selected rats are injected with a solution containing a suspension of bupivacaine-loaded microspheres plus co-administered augmenting agent on one side and injected with a control on the contralateral side so that each rat serves as its own control. Each injection is adjacent to the sciatic nerve. The controls are bupivacaine-loaded microspheres without co-administered augmenting agent and microspheres without any bupivacaine.
As previously discussed, the degree of sensory local anesthesia is measured by determining the time or latency, in seconds, before each rat withdraws its hindpaw from a hotplate set to a safe but uncomfortable temperature. Maximum sciatic nerve sensory blockade is defined as having a latency of about 12 seconds or higher.
Twenty-four rats each receive an injection of bupivacaine-loaded controlled release microspheres into the left or right side, co-administered with a dextran containing injection solution. The contralateral side receive either bupivacaine-loaded microspheres at the same dose, or unloaded microspheres co-administered with a dextran injection solution.
Sensory hot plate latency is measured from the time of the injections until the latency declined to under 2 seconds.

[3] = test system: rat sciatic nerve; assay: Rat sciatic nerve model, motor testing (4-point scale); format: in vivo; settings: augmenting agent with bupivacaine-loaded microspheres vs contralateral side with bupivacaine-loaded microspheres without the agent
Procedure: as §1, §2
The degree of motor blockade is measured by scoring the appearance of the affected foot for the signs of loss of motor tone. The assessment is conducted as follows using a 4-point scale based on visual observation: (1) normal appearance, (2) intact dorsiflexion of foot with an impaired ability to splay toes when elevated by the tail, (3) toes and foot remained plantar flexed with no splaying ability, and (4) loss of dorsiflexion, flexion of toes, and impairment of gait.
Motor blockade is scored until the hind paws of motor blockades rats returned to a normal appearance.
Sensory and motor testing is conducted according to sections A and B, respectively, of EXAMPLE 10, above. Using the experimental protocol of section C of EXAMPLE 10, 24 rats are tested.
Sensory and motor testing is conducted according to sections A and B, respectively, of EXAMPLE 10, above.

[4] = immediate release vasoconstrictor, at best; cited from earlier work
[5] = test system: rat sciatic nerve; assay: Duration of anesthesia of bupivacaine microspheres (LAB) with co-injected additives, hotplate foot withdrawal; format: in vivo; settings: read-out: Duration Anesthesia As Percent of Control
[6] = Microdialysis of bupivacaine at i.m. injection site in quadriceps muscle; format: in vivo, Sprague-Dawley rat; settings: 3 mg i.m., quadriceps femoris
Procedure: To determine whether bupivacaine is released from EDLA in two phases in-vivo, bupivacaine HCl and EDLA was injected into the quadriceps muscles of rats in which microdialysis catheters had been previously placed. Bupivacaine HCl was injected i.m. into the quadriceps femoris of a Sprague-Dawley rat around the area of a microdialysis catheter. […] This rapid escape is consistent with the very short duration of anesthetic action aqueous bupivacaine has in this model. Diffusion of bupivacaine, quantitated by HPLC, was from a single compartment that followed first order kinetics, k=0.25±0.04 min^−1. (SS=3.613). […] The first compartment was apparently identical to the mechanism of escape of soluble bupivacaine HCl, since the rate constant was essentially identical (k=0.22/minute). […] Calibration was determined in vivo by delivery of a 10 ug/ml solution of bupivacaine. […] Excellular bupivacaine was measured in the dialysate every 10 minutes. In vivo extracelluar concentration was determined from the dialysate concentration by factoring in the microdialysis probe recovery which had been previously determined. […]

[7] = test system: superficial radial nerve; assay: Local anesthesia to pin prick after injection around the superficial radial nerve in normal volunteers; format: in vivo, humans; settings: n=6; EDLA 3 ml (37.5 mg total) or aqueous bupivacaine HCl 50 mg, single injection
Procedure: Finally, the two compartment release of bupivacaine from EDLA results in rapid onset and prolonged duration of local anesthesia in humans. Normal volunteers (n=6) received a single injection of 3 ml EDLA (37.5 mg total) or aqueous bupivacaine HCl (50 mg) around the superficial radial nerve. Onset of local anesthesia to pin prick over the anatomical snuff box was <3 hours with aqueous bupivacaine with duration of action 6-8 hours. Onset of local anesthesia with EDLA was <3 hours with duration of action 48-72 hours.

Molecule	Duration Anesthesia As Percent of Control ([1]; % Additive Conc. 0.05)	Duration Anesthesia As Percent of Control ([1]; % Additive Conc. 0.5)	also measured
O=C1NC(=O)C(c2ccccc2)(c2ccccc2)N1 [5,5-diphenylhydantoin]			Duration Anesthesia As Percent of Control ([1]; % Additive Conc. 0.11): 152% of Control; Duration Anesthesia As Percent of Control ([1]; % Additive Conc. 1.09): 138% of Control
CN1C(=O)CN=C(c2ccccc2)c2cc(Cl)ccc21 [Diazepam]	231% of Control	203% of Control	
C[C@@H]1O[C@@H](O[C@H]2C[C@@H](O)[C@]3(CO)[C@H]4[C@H](O)C[C@]5(C)[C@@H](C6=CC(=O)OC6)CC[C@]5(O)[C@@H]4CC[C@]3(O)C2)[C@H](O)[C@H](O)[C@H]1O [Ouabain]	154% of Control	178% of Control	
C[C@]12CC[C@@H](O)C[C@@H]1CC[C@@H]1[C@@H]2C(=O)C[C@@]2(C)[C@H]1CC[C@]2(O)C(=O)CO [Allotetrahydrocortisone, allotetrahydrocortisone]	100% of Control	117% of Control	
CC[C@]1(O)C[C@@H]2CN(CCc3c([nH]c4ccccc34)[C@@](C(=O)OC)(c3cc4c(cc3OC)N(C)[C@H]3[C@@](O)(C(=O)OC)[C@H](OC(C)=O)[C@]5(CC)C=CCN6CC[C@]43[C@@H]65)C2)C1 [Vinblastine]	158% of Control		Duration Anesthesia As Percent of Control ([1]; % Additive Conc. 0.11): 37% of Control; Duration Anesthesia As Percent of Control ([1]; % Additive Conc. 1.09): 40% of Control
CCCC(CCC)C(=O)O [Valproic Acid]	152% of Control	138% of Control	
CN[C@@H](C)[C@H](O)c1ccccc1 [ephedrine]			duration of sensory block [2]: significantly longer duration of sensory block; duration of motor block [3]: significantly increased duration of motor block
CC1=NS(=O)(=O)c2cc(Cl)ccc2N1 [Diazoxide]	138% of Control	109% of Control	
CC(=O)O[C@H]1C(=O)[C@@]2(C)[C@H]([C@H](OC(=O)c3ccccc3)[C@]3(O)C[C@H](OC(=O)[C@H](O)[C@@H](NC(=O)c4ccccc4)c4ccccc4)C(C)=C1C3(C)C)[C@]1(OC(C)=O)CO[C@@H]1C[C@@H]2O [Taxol]		82% of Control	Duration Anesthesia As Percent of Control ([1]; % Additive Conc. 0.11): 104% of Control; Duration Anesthesia As Percent of Control ([1]; % Additive Conc. 1.09): 108% of Control
COc1ccc2c(c1)CC[C@@H]1[C@@H]2CC[C@]2(C)[C@@H](NCCCCCCN3C(=O)C=CC3=O)CC[C@@H]12 [U-73, 122, 1[6-[[17-beta-3-methoxyestra-1,3,5(10)-triene-17-yl]amino]hexl]1-H-pyrrole-2,5-dione]	106% of Control	115% of Control	
CNC[C@H](O)c1ccc(O)c(O)c1 [epinephrine]			prolongation of local anesthetic activity [4]: ≤ 1 h; duration of sensory block [2]: significantly longer duration of sensory block; duration of motor block [3]: significantly increased duration of motor block
Cc1c(N(C)C)c(=O)n(-c2ccccc2)n1C [Aminopyrine]	146% of Control	62% of Control	
CC[N+](CC)(CC)CC [Tetraethylammonium]	95% of Control	123% of Control	
NC(=NCc1ccccc1)NC(=O)c1nc(Cl)c(N)nc1N [Benzamil]	83% of Control	154% of Control	
Nc1ccncc1 [Aminopyridine (4-AP), Aminopyridine]	77% of Control		Duration Anesthesia As Percent of Control ([1]; % Additive Conc. 0.11): 92% of Control; Duration Anesthesia As Percent of Control ([1]; % Additive Conc. 1.09): 131% of Control
CC(N)Cc1ccccc1 (centres unmarked) [amphetamine]			duration of sensory block [2]: significantly longer duration of sensory block; duration of motor block [3]: significantly increased duration of motor block
Dextran			duration of sensory block [2]: significantly longer duration of sensory block; sensory blockade ([2]; unloaded microspheres with dextran alone): no sensory blockade; Duration Anesthesia As Percent of Control ([1]; % Additive Conc. 3): 46-144% of Control; duration of motor block [3]: significantly increased duration of motor block
Clc1cccc(Cl)c1N=C1NCCN1 [Clonidine]	122% of Control	71% of Control	
COc1cc2c(c(OC)c1OC)-c1ccc(OC)c(=O)cc1[C@@H](NC(C)=O)CC2 [Colchicine]			response vs control in vivo at 0.1 % ([5]; % Additive Conc. 0.1, Placebo (in place of LAB)): 0%; response vs control in vivo at 10 % ([5]; % Additive Conc. 10, no LAB): 0%; Duration Anesthesia As Percent of Control ([1]; % Additive Conc. 0.01): 104% of Control; Duration Anesthesia As Percent of Control ([1]; % Additive Conc. 1.0): 277% of Control; Duration Anesthesia As Percent of Control ([1]; % Additive Conc. 10): toxic
Nc1cc(N2CCCCC2)nc(N)[n+]1[O-] [Minoxidil]	54% of Control	218-265% of Control	
CCCCN1CCCCC1C(=O)Nc1c(C)cccc1C (centres unmarked) [bupivacaine HCl]			k, first order escape of bupivacaine from i.m. injection site (single compartment) [6]: 0.25 ± 0.04 min⁻¹; duration of action of local anesthesia [7]: 6 to 8 h
CC(=O)[C@H]1CC[C@H]2[C@@H]3CC[C@H]4C[C@H](O)CC[C@]4(C)[C@H]3C(=O)C[C@]12C [Alphaxalone]	169% of Control	123% of Control	
